Test results as given in ChEMBL document CHEMBL3885861, “Open TG-GATES”.

Species on record: Rattus norvegicus
Experiment: Open TG-GATES - Regimen: Single
Assay type: toxicity, organism-based, Sprague-Dawley
Parameters: regimen Single, gender Male, age 6 weeks
Settings: in vivo, ip, 40 mg/kg, route intraperitoneal injection, dose level Low; for APTT / Bas / Eos / Fbg / Hb / Ht / Lym / MCH / MCHC / MCV / Mono / Neu / PT / Plat / RBC / Ret / WBC: tissue Blood; for KIDNEY_L / KIDNEY_R / KIDNEY_TOTAL: tissue Kidney; for LIVER: tissue Liver; for A/G / ALP / ALT / AST / BUN / CRE / Ca / Cl / DBIL / GLC / IP / K / LDH / Na / PL / RALB / TBIL / TC / TG / TP / gamma-GTP: tissue Plasma

CC(C)=CC(=O)C=C(C)C [PHORONE]
TERMINAL_BW (9 h): 220.4 g
APTT (9 h): 17.1 s
Bas (9 h): 0%
Eos (9 h): 1%
Fbg (9 h): 246.6 mg/dL
Hb (9 h): 13.2 g/dL
Ht (9 h): 39.8%
Lym (9 h): 63.8%
MCH (9 h): 21.8 pg
MCHC (9 h): 33.3%
MCV (9 h): 65.5 fL
Mono (9 h): 8.6%
Neu (9 h): 26.6%
PT (9 h): 12.1 s
Plat (9 h): 115.4 x10_4/uL
RBC (9 h): 609 x10_4/ul
Ret (9 h): 9.4%
WBC (9 h): 96.2 x10_2/uL
KIDNEY_L (9 h): 1 g
KIDNEY_R (9 h): 1 g
KIDNEY_TOTAL (9 h): 2 g
LIVER (9 h): 9.5 g
A/G (9 h): 2
ALP (9 h): 839.8 IU/L
ALT (9 h): 33.2 IU/L
AST (9 h): 69 IU/L
BUN (9 h): 13.8 mg/dL
CRE (9 h): 0.5 mg/dL
Ca (9 h): 10.8 mg/dL
Cl (9 h): 106.6 meq/L
DBIL (9 h): 0.04 mg/dL
GLC (9 h): 204.2 mg/dL
IP (9 h): 10 mg/dL
K (9 h): 4.7 meq/L
LDH (9 h): 91.4 IU/L
Na (9 h): 138.8 meq/L
PL (9 h): 131.8 mg/dL
RALB (9 h): 3.6 g/dL
TBIL (9 h): 0.4 mg/dL
TC (9 h): 77.6 mg/dL
TG (9 h): 54 mg/dL
TP (9 h): 5.4 g/dL
gamma-GTP (9 h): 1.8 IU/L
TERMINAL_BW (24 h): 231.5 g
APTT (24 h): 16.9 s
Bas (24 h): 0%
Eos (24 h): 0.8%
Fbg (24 h): 231.2 mg/dL
Hb (24 h): 12.9 g/dL
Ht (24 h): 38.5%
Lym (24 h): 77.8%
MCH (24 h): 22 pg
MCHC (24 h): 33.6%
MCV (24 h): 65.4 fL
Mono (24 h): 5.6%
Neu (24 h): 16%
PT (24 h): 11.5 s
Plat (24 h): 113 x10_4/uL
RBC (24 h): 589.8 x10_4/ul
Ret (24 h): 8.8%
WBC (24 h): 87.7 x10_2/uL
KIDNEY_L (24 h): 1 g
KIDNEY_R (24 h): 1 g
KIDNEY_TOTAL (24 h): 2 g
LIVER (24 h): 11.8 g
A/G (24 h): 2
ALP (24 h): 774.8 IU/L
ALT (24 h): 34 IU/L
AST (24 h): 65 IU/L
BUN (24 h): 19.2 mg/dL
CRE (24 h): 0.5 mg/dL
Ca (24 h): 11 mg/dL
Cl (24 h): 104.4 meq/L
DBIL (24 h): 0.028 mg/dL
GLC (24 h): 197.2 mg/dL
IP (24 h): 8.3 mg/dL
K (24 h): 4.7 meq/L
LDH (24 h): 87.6 IU/L
Na (24 h): 139 meq/L
PL (24 h): 156 mg/dL
RALB (24 h): 3.8 g/dL
TBIL (24 h): 0.4 mg/dL
TC (24 h): 81.8 mg/dL
TG (24 h): 118.2 mg/dL
TP (24 h): 5.7 g/dL
gamma-GTP (24 h): 0.6 IU/L
